# Data published in ChEMBL document CHEMBL4270599, “Synthesis of a 3'-C-ethynyl-β-d-ribofuranose purine nucleoside library: Discovery of C7-deazapurine analogs as potent antiproliferative nucleosides” (Eur J Med Chem, 2018).
# Tests used:
# Type in all cases: functional
# MDA-MB-435 = assay: Cytotoxicity against human MDA-MB-435 cells after 48 hrs by SRB assay; conditions: MDA-MB-435, 48 h
# U-251 [1] = assay: Growth inhibition of human U251 cells assessed as cell growth at 10^-4 M incubated for 48 hrs by sulforhodamine B assay relative to control; conditions: U-251, 48 h, read-out: Activity
# MCF7 = assay: Growth inhibition of human MCF7 cells assessed as cell growth at 10^-6 M incubated for 48 hrs by sulforhodamine B assay relative to control; conditions: MCF7, 48 h, read-out: Activity
# SR = assay: Growth inhibition of human SR cells assessed as cell growth at 10^-8 M incubated for 48 hrs by sulforhodamine B assay relative to control; conditions: read-out: Activity
# HL-60(TB) = assay: Cytotoxicity against human HL-60(TB) cells after 48 hrs by SRB assay; conditions: HL-60, 48 h
# CCRF-CEM = assay: Growth inhibition of human CCRF-CEM cells assessed as cell growth at 10^-8 M incubated for 48 hrs by sulforhodamine B assay relative to control; conditions: read-out: Activity
# NCI/ADR-RES = assay: Growth inhibition of human NCI/ADR-RES cells assessed as cell growth at 10^-5 M incubated for 48 hrs by sulforhodamine B assay relative to control; conditions: read-out: Activity
# K562 [2] = assay: Growth inhibition of human K562 cells assessed as cell growth at 10^-5 M incubated for 48 hrs by sulforhodamine B assay relative to control; conditions: K562, 48 h, read-out: Activity
# SNB-19 = assay: Cytotoxicity against human SNB19 cells after 48 hrs by SRB assay; conditions: SNB-19, 48 h
# OVCAR-4 [3] = assay: Cytotoxicity against human OVCAR4 cells after 48 hrs by SRB assay; conditions: OVCAR-4, 48 h
# Malme-3M = assay: Growth inhibition of human MALME-3M cells assessed as cell growth at 10^-8 M incubated for 48 hrs by sulforhodamine B assay relative to control; conditions: read-out: Activity
# NCI-H322M = assay: Growth inhibition of human NCI-H322M cells assessed as cell growth at 10^-7 M incubated for 48 hrs by sulforhodamine B assay relative to control; conditions: read-out: Activity
# SNB-75 = assay: Growth inhibition of human SNB75 cells assessed as cell growth at 10^-7 M incubated for 48 hrs by sulforhodamine B assay relative to control; conditions: SNB-75, 48 h, read-out: Activity
# IGROV-1 = assay: Cytotoxicity against human IGROV1 cells after 48 hrs by SRB assay; conditions: IGROV-1, 48 h
# SK-MEL-28 = assay: Growth inhibition of human SK-MEL-28 cells assessed as cell growth at 10^-5 M incubated for 48 hrs by sulforhodamine B assay relative to control; conditions: SK-MEL-28, 48 h, read-out: Activity
# BT-549 = assay: Growth inhibition of human BT549 cells assessed as cell growth at 10^-7 M incubated for 48 hrs by sulforhodamine B assay relative to control; conditions: BT-549, 48 h, read-out: Activity
# U-251 [4] = assay: Cytotoxicity against human U251 cells after 48 hrs by SRB assay; conditions: U-251, 48 h
# PC-3 = assay: Growth inhibition of human PC3 cells assessed as cell growth at 10^-8 M incubated for 48 hrs by sulforhodamine B assay relative to control; conditions: PC-3, 48 h, read-out: Activity
# SW-620 = assay: Growth inhibition of human SW620 cells assessed as cell growth at 10^-5 M incubated for 48 hrs by sulforhodamine B assay relative to control; conditions: SW-620, 48 h, read-out: Activity
# NCI-H226 [5] = assay: Growth inhibition of human NCI-H226 cells assessed as cell growth at 10^-4 M incubated for 48 hrs by sulforhodamine B assay relative to control; conditions: NCI-H226, 48 h, read-out: Activity
# MDA-MB-468 = assay: Cytotoxicity against human MDA-MB-468 cells after 48 hrs by SRB assay; conditions: MDA-MB-468, 48 h
# A498 = assay: Growth inhibition of human A498 cells assessed as cell growth at 10^-7 M incubated for 48 hrs by sulforhodamine B assay relative to control; conditions: A498, 48 h, read-out: Activity
# SK-OV-3 [6] = assay: Growth inhibition of human SKOV3 cells assessed as cell growth at 10^-4 M incubated for 48 hrs by sulforhodamine B assay relative to control; conditions: SK-OV-3, 48 h, read-out: Activity
# NCI-H226 [7] = assay: Growth inhibition of human NCI-H226 cells assessed as cell growth at 10^-7 M incubated for 48 hrs by sulforhodamine B assay relative to control; conditions: NCI-H226, 48 h, read-out: Activity
# K562 [8] = assay: Growth inhibition of human K562 cells assessed as cell growth at 10^-7 M incubated for 48 hrs by sulforhodamine B assay relative to control; conditions: K562, 48 h, read-out: Activity
# DU-145 = assay: Growth inhibition of human DU145 cells assessed as cell growth at 10^-6 M incubated for 48 hrs by sulforhodamine B assay relative to control; conditions: DU-145, 48 h, read-out: Activity
# NCI-H460 [9] = assay: Growth inhibition of human NCI-H460 cells assessed as cell growth at 10^-6 M incubated for 48 hrs by sulforhodamine B assay relative to control; conditions: NCI-H460, 48 h, read-out: Activity
# OVCAR-4 [10] = assay: Growth inhibition of human OVCAR4 cells assessed as cell growth at 10^-8 M incubated for 48 hrs by sulforhodamine B assay relative to control; conditions: OVCAR-4, 48 h, read-out: Activity
# SK-MEL-5 [11] = assay: Cytotoxicity against human SK-MEL-5 cells after 48 hrs by SRB assay; conditions: SK-MEL-5, 48 h
# SK-OV-3 [12] = assay: Cytotoxicity against human SKOV3 cells after 48 hrs by SRB assay; conditions: SK-OV-3, 48 h
# NCI-H460 [13] = assay: Cytotoxicity against human NCI-H460 cells after 48 hrs by SRB assay; conditions: NCI-H460, 48 h
# SK-MEL-5 [14] = assay: Growth inhibition of human SK-MEL-5 cells assessed as cell growth at 10^-6 M incubated for 48 hrs by sulforhodamine B assay relative to control; conditions: SK-MEL-5, 48 h, read-out: Activity
# [15] = read-out: pLC50 (the source's name) (converted)
compound,measurement,setting,value
C#C[C@@]1(O)[C@@H](CO)O[C@@H](n2ccc3c(N)ncnc32)[C@@H]1O,TGI,MDA-MB-435; read-out: TGI,3.49 µM
same,GI50,MDA-MB-435; read-out: pGI50 (converted),1.48 µM
same,CC50,MDA-MB-435; [15],8.13 µM
same,TGI,MDA-MB-435; read-out: pTGI (converted),3.47 µM
same,growth at 100 µM,U-251 [1],-30%
same,growth at 1 µM,MCF7,13%
same,growth at 0.01 µM,SR,101%
same,TGI,HL-60(TB); read-out: TGI,5.49 µM
same,GI50,HL-60(TB); read-out: pGI50 (converted),1.58 µM
same,CC50,HL-60(TB); [15],> 100 µM
same,TGI,HL-60(TB); read-out: pTGI (converted),5.5 µM
same,growth at 0.01 µM,CCRF-CEM,102%
same,growth at 10 µM,NCI/ADR-RES,-7%
same,growth at 10 µM,K562 [2],6%
same,TGI,SNB-19; read-out: TGI,6.6 µM
same,GI50,SNB-19; read-out: pGI50 (converted),1.62 µM
same,CC50,SNB-19; [15],> 100 µM
same,TGI,SNB-19; read-out: pTGI (converted),6.61 µM
same,TGI,OVCAR-4 [3]; read-out: TGI,7.79 µM
same,GI50,OVCAR-4 [3]; read-out: pGI50 (converted),1.95 µM
same,CC50,OVCAR-4 [3]; [15],28.2 µM
same,TGI,OVCAR-4 [3]; read-out: pTGI (converted),7.76 µM
same,growth at 0.01 µM,Malme-3M,86%
same,growth at 0.1 µM,NCI-H322M,94%
same,growth at 0.1 µM,SNB-75,95%
same,CC50,IGROV-1; read-out: LC50 (the source's name),> 100 µM
same,TGI,IGROV-1; read-out: TGI,5.85 µM
same,GI50,IGROV-1; read-out: pGI50 (converted),1.45 µM
same,TGI,IGROV-1; read-out: pTGI (converted),5.89 µM
same,growth at 10 µM,SK-MEL-28,21%
same,growth at 0.1 µM,BT-549,102%
same,TGI,U-251 [4]; read-out: TGI,11.8 µM
same,GI50,U-251 [4]; read-out: pGI50 (converted),2.45 µM
same,CC50,U-251 [4]; [15],> 100 µM
same,TGI,U-251 [4]; read-out: pTGI (converted),11.7 µM
same,growth at 0.01 µM,PC-3,97%
same,growth at 10 µM,SW-620,5%
same,growth at 100 µM,NCI-H226 [5],-61%
same,TGI,MDA-MB-468; read-out: TGI,3.33 µM
same,GI50,MDA-MB-468; read-out: pGI50 (converted),1.29 µM
same,CC50,MDA-MB-468; [15],8.51 µM
same,TGI,MDA-MB-468; read-out: pTGI (converted),3.31 µM
same,growth at 0.1 µM,A498,105%
same,growth at 100 µM,SK-OV-3 [6],-11%
same,growth at 0.1 µM,NCI-H226 [7],111%
same,growth at 0.1 µM,K562 [8],93%
same,growth at 1 µM,DU-145,34%
same,growth at 1 µM,NCI-H460 [9],30%
same,growth at 0.01 µM,OVCAR-4 [10],93%
same,TGI,SK-MEL-5 [11]; read-out: TGI,2.96 µM
same,GI50,SK-MEL-5 [11]; read-out: pGI50 (converted),1.55 µM
same,CC50,SK-MEL-5 [11]; [15],5.62 µM
same,TGI,SK-MEL-5 [11]; read-out: pTGI (converted),2.95 µM
same,TGI,SK-OV-3 [12]; read-out: TGI,5.24 µM
same,GI50,SK-OV-3 [12]; read-out: pGI50 (converted),1.07 µM
same,CC50,SK-OV-3 [12]; [15],> 100 µM
same,TGI,SK-OV-3 [12]; read-out: pTGI (converted),5.25 µM
same,TGI,NCI-H460 [13]; read-out: TGI,10.6 µM
same,GI50,NCI-H460 [13]; read-out: pGI50 (converted),0.468 µM
same,CC50,NCI-H460 [13]; [15],> 100 µM
same,TGI,NCI-H460 [13]; read-out: pTGI (converted),10.7 µM
same,growth at 1 µM,SK-MEL-5 [14],85%
